Values of other authors, collected in patent US20210275546A1, “HIGH DRUG LOAD SOLID ORAL DOSAGE FORMS OF DEXAMETHASONE” (Jubilant Pharma Holdings Inc., priority 2020, published 2021).
“Also recorded” adds a separate entry of the source.

C[C@@H]1C[C@H]2[C@@H]3CCC4=CC(=O)C=C[C@]4(C)[C@@]3(F)[C@@H](O)C[C@]2(C)[C@@]1(O)C(=O)CO [Dexamethasone, 9-fluoro-11β,17,21trihydroxy-16α-methylpregna-1,4-diene-3,20-dione]
solubility in acetone (acetone): sparingly soluble | solubility in dichloromethane (dichloromethane): slightly soluble | solubility in ethanol (ethanol): sparingly soluble | solubility in methanol (methanol): sparingly soluble | solubility in water (water): practically insoluble; also recorded: poorly water-soluble
